Data taken from publication PMC11087051, “Large-scale deorphanization of Nematostella vectensis neuropeptide G protein-coupled receptors supports the independent expansion of bilaterian and cnidarian peptidergic systems” (eLife, 2024).
Residues, ends and D or L forms follow the SMILES beside them. No end group written: not given here.

Key:
QGRFa.R070 (R70, GPR70) = assay: GPCR deorphanization dose-response assay (HEK293, G5A luminescence); assay type: cell-based, Nematostella vectensis; details: drc fit
Protocol: (§1) To experimentally identify Nematostella neuropeptide GPCRs, we tested our selection of 161 N. vectensis GPCRs in a pharmacological assay for activation by peptides from our peptide library (Figure 3A, Supplementary files 3 and 8). We expressed the candidate GPCRs in mammalian cells, together with a promiscuous Gqi protein and a luminescent G5A reporter (Figure 3A, Supplementary file 7). The peptides were separated into different mixes (Supplementary file 3), which were then tested on each GPCR (Supplementary file 4). Receptor-mix combinations that gave a positive signal were further resolved by testing the individual peptides of the mix to identify the activating ligand (Supplementary file 4). […]
(§2) A detailed step-by-step protocol has been published in [Thiel et al., 2023]. […] For each well, 10 µl OptiMEM (without FBS), 70 ng of GPCR containing plasmid, 70 ng of Gqi5/9 plasmid, 10–20 ng of G5A plasmid (to increase luminescence values of our HEK293 cell line), and 0.45–0.48 µl T5000/PEI were mixed and incubated for 20 min at room temperature. […] Readings were performed with a FlexStation 3 Multi-mode Microplate reader (Molecular Devices), for a period of 60 s per well, ligand injection after 15–18 s, and the whole plate was read with the Flex option. […] The readout data for the final dose-response curves is provided in Supplementary file 9 and as .csv files in the repository in the data folder. […]

[1] = tested on: QITRFa.R196 (R196, GPR196); assay: as above; assay type: cell-based, Nematostella vectensis; details: drc fit
Protocol: as §1, §2

[2] = Maximal solubility of the synthetic peptides in water and in DMSO (sheet Peptide_mixes); assay type: physicochemical; details: for max solve (DMSO): in DMSO, number in brackets in the cell; for max solve water: in water, number before the bracket in the cell
From the text: Supplement elife-90674-supp3.xlsx, sheet "Peptide_mixes"

| Compound | Slope of the dose-response curve (QGRFa.R070 (R70, GPR70)) | Slope of the dose-response curve [1] | max solve (DMSO) [2] | max solve water [2] |
| --- | --- | --- | --- | --- |
| pyrQITRFamide [synthetic N. vectensis RFamide neuropeptide pyrQITRFamide] | -1.343 | -0.6635 |  |  |
| CC(C)C[C@H](NC(=O)[C@H](CO)NC(=O)[C@H](CCC(=O)O)NC(=O)CNC(=O)[C@H](CC(=O)O)NC(=O)[C@@H](NC(=O)[C@H](CCC(=O)O)NC(=O)[C@@H]1CCC(=O)N1)[C@@H](C)O)C(=O)N[C@@H](CCCCN)C(=O)N[C@@H](CCCCN)C(=O)N[C@@H](C)C(=O)N[C@@H](CCC(=O)O)C(=O)N[C@@H](CCC(=O)O)C(=O)N[C@@H](CCC(=O)O)C(=O)N[C@@H](Cc1ccccc1)C(=O)N[C@H](C(=O)O)C(C)C [EFV] (HELM PEPTIDE1{[Glp].E.T.D.G.E.S.L.K.K.A.E.E.E.F.V}$$$$V2.0) |  |  | 10 mg/mL | 5 mg/mL |
| GPPMIKIPVRH-NH2 [VRHa] |  |  | 10 (10) mg/ml | 10 (10) mg/ml |
| LPPRFGGQI-NH2 [QIa] |  |  | 10 mg/mL | 5 mg/mL |
| CC(C)C[C@H](NC(=O)[C@H](CCCNC(=N)N)NC(=O)[C@@H](NC(=O)[C@H](CC(N)=O)NC(=O)[C@H](C)NC(=O)[C@H](CCCCN)NC(=O)[C@@H]1CSSC[C@H](NC(=O)[C@H](Cc2c[nH]cn2)NC(=O)CNC(=O)[C@H](CC(N)=O)NC(=O)[C@@H]2CCC(=O)N2)C(=O)N2CCC[C@H]2C(=O)N2CCC[C@H]2C(=O)NCC(=O)N[C@@H](CC(C)C)C(=O)N[C@@H](Cc2c[nH]c3ccccc23)C(=O)N[C@@H](CC(C)C)C(=O)N1)[C@@H](C)O)C(=O)O [GLWLcc] (HELM PEPTIDE1{[Glp].N.G.H.C.P.P.G.L.W.L.C.K.A.N.T.R.L}$PEPTIDE1,PEPTIDE1,5:R3-12:R3$$$V2.0) |  |  | 5 (5) mg/ml | 5 (5) mg/ml |
| GPPGLW-NH2 [GLWa3] |  |  | 10 mg/mL | 5 mg/mL |
| CC[C@H](C)[C@H](NC(=O)[C@H](CC[S+](C)[O-])NC(=O)[C@@H]1CCCN1C(=O)[C@@H]1CCCN1C(=O)CN)C(=O)N[C@@H](CCCCN)C(=O)N[C@H](C(=O)N1CCC[C@H]1C(=O)N[C@H](C(=O)N[C@@H](CCCNC(=N)N)C(=O)N[C@@H](Cc1c[nH]cn1)C(N)=O)C(C)C)[C@@H](C)CC (stereo partly drawn) [RHa2] (HELM PEPTIDE1{G.P.P.[CS(=O)CC[C@H](N[*:1])C(=O)[*:2]].I.K.I.P.V.R.H.[am]}$$$$V2.0) |  |  | 10 mg/mL | 5 mg/mL |
| CC[C@H](C)[C@H](NC(=O)[C@H](Cc1c[nH]cn1)NC(=O)[C@H](Cc1ccccc1)NC(=O)[C@H](Cc1ccccc1)NC(=O)[C@H](CO)NC(=O)[C@@H]1CCCN1C(=O)[C@H](CCC(=O)O)NC(=O)CNC(=O)[C@H](CC(C)C)NC(=O)[C@H](CC(=O)O)NC(=O)[C@H](CC(C)C)NC(=O)[C@H](Cc1ccc(O)cc1)NC(=O)[C@@H]1CCCN1C(=O)[C@@H]1CCCN1C(=O)[C@@H]1CCC(=O)N1)C(=O)N[C@@H](CCCNC(=N)N)C(N)=O [HIRa1] (HELM PEPTIDE1{[Glp].P.P.Y.L.D.L.G.E.P.S.F.F.H.I.R.[am]}$$$$V2.0) |  |  | 10 (10) mg/ml | 10 (10) mg/ml |
| C[C@H](NC(=O)[C@H](CCCCN)NC(=O)[C@H](Cc1ccccc1)NC(=O)[C@@H](N)Cc1ccccc1)C(N)=O [FFKAa] (H-FFKA-NH2) |  |  | 10 (10) mg/ml | 10 (10) mg/ml |
